Drawing on article PMC7822874, “Chemoprotective antimalarials identified through quantitative high-throughput screening of Plasmodium blood and liver stage parasites” (Scientific Reports, 2021), this text covers AC50 for 70 compounds.

What is called AC50 is the midpoint of the concentration-response curve, whichever way the signal moves.

Peptide text beside a SMILES is read from it. * marks the point of attachment. Boc = CC(C)(C)OC(=O)*; OBn = c1ccc(CO*)cc1

For one assay, the system named is Plasmodium falciparum Dd2 asexual blood stage parasites. The assay is described as follows: microbe, parasite or virus in culture. The note with it: Plasmodium falciparum, DD2, Erythrocyte, 72 h. More on the design: species or system Plasmodium falciparum Dd2 in human erythrocytes; single determination (one 11-point concentration-response curve).
The compound `Oc1cc2c(cc1CN1CCN(c3ccccc3)CC1)CCC2` [MLS000058156-01] came in with a half-maximal activity concentration (AC50) of 3.35 µM.

Staying with this assay, now noted: Plasmodium falciparum, DD2, Erythrocyte, 72 h; read-out: AC50.
As to `Cc1oc2ccc(O)c(CN3CCCCCC3)c2c1C(=O)Nc1cccc(Cl)c1C` [NCGC00115685-01], the AC50 came to 0.841 µM.
On to `Cc1noc(C)c1[S+](=O)([O-])N1CCCN(Cc2ccncc2)C(c2ccccc2)CC(=O)NCC1` (stereo not shown) [NCGC00467205-01], for which the AC50 is 7.5 µM.
The same measure, in the same setting: for `COc1ccccc1CN1CCOCC2(C1)CN([S+](=O)([O-])c1ccccc1)C2` [NCGC00419002-01] the value was 12.2 µM; for `Cc1oc2c(CN3CCCCC3)c(O)ccc2c(=O)c1-c1ccc(Cl)cc1` [MLS001214839-01], 5.31 µM.
On to `CCCn1c(C)cnc1CC1CCN([S+](=O)([O-])c2ccc3c(c2)CCC3)C1` (stereo not shown) [NCGC00464176-01], for which the half-maximal activity concentration (AC50) came to 9.44 µM.
Turning to `COC1CN(c2ccc(C)cc2)C12CCN(C(=O)CCc1nc3ccccc3s1)CC2` (stereo not shown) [NCGC00465628-01], the AC50 was found to be 10.6 µM.
Consider `COc1ccc(NC(=O)Cn2cccc2-c2nc(-c3ccc(OC)c(F)c3)no2)cc1` [NCGC00445480-01], for which the AC50 came out at 4.73 µM.
Consider `COc1ccccc1N1CCN(C(c2cc3ccc(C)cc3nc2O)c2nnnn2C2CCCC2)CC1` (stereo not shown) [MLS000077380-01], for which the AC50 stood at 7.5 µM.
As to `CCOC(=O)COn1c(-n2nc(C)cc2C)nc2ccccc2c1=O` [MLS001215150-01], the AC50 was found to be 9.44 µM.
As for `CCCC(O)(c1ccc(Cl)cc1)C(CN1CCOCC1)c1ccc(Cl)cc1` (stereo not shown) [MLS001200366-01], the AC50 was determined as 4.73 µM.
For `Fc1cccc(CC2CCOC3(CCNCC3)C2)c1` (stereo not shown) [NCGC00470522-01], the AC50 was 13.3 µM.
As to `CC1CC(C)CN(C(=O)c2ccc3ccccc3c2)C1` (stereo not shown) [MLS001161774-01], the AC50 turned out to be 2.37 µM.
On the same count and under the same terms, to `CC(C)CC(NC(=O)C(NC(=O)OC(C)(C)C)C(C)C)C(=O)NC(CCC(=O)OCc1ccccc1)C(N)=O` (stereo not drawn) [MLS001304946-01] (Boc-Val-Leu-Glu(OBn)-NH2; configuration not given here) belongs 8.41 µM; to `CCCCn1c(=N)c(C(=O)NC2CCCCC2)cc2c(=O)n3cccc(C)c3nc21` [NCGC00101037-01], 1.5 µM.
Turning to `CSc1cccc(Nc2nc3c([S+](=O)([O-])c4ccccc4)nnn3c3ccc(Cl)cc23)c1` [NCGC00112212-01], the AC50 came to 1.88 µM.
`CCCCc1cc(=O)oc2cc(C)cc(OCC(=O)Nc3cccnc3)c12` [MLS001160046-01]: the half-maximal activity concentration (AC50) stood at 0.596 µM.
As to `OCc1cccc(-c2ccc3ncc(Nc4ccc(OCCN5CCCC5)cc4)n3n2)c1` [NCGC00412543-01], the AC50 is 3.44 µM.
Consider `COc1ccccc1CN1CCC(CNC(=O)c2cnn(-c3cccc(Cl)c3)c2C2CCN(C(=O)OC(C)(C)C)CC2)CC1` [NCGC00126858-01], for which the concentration at half-maximal activity (AC50) came out at 7.5 µM.
In the case of `CCCNCC(O)COc1ccccc1C(=O)CCc1ccccc1` (stereo not shown) [NCGC00015819-06], the AC50 came out at 0.841 µM.
For `O=C1N(c2ccccc2C(F)(F)F)O[C@@]1(c1ccccc1)C1CCCCC1` [MLS002206598-01], the half-maximal activity concentration (AC50) turned out to be 5.31 µM.
Still for that read-out and setting: for `CCc1nn2cc(C(=O)c3cc(C)ccc3O)cnc2c1-c1ccc(F)cc1` [MLS000548735-01] the value was 9.44 µM.
`CN(C)CCNC(=O)c1cc(-c2ccccc2F)cc2c1OCCN2Cc1cccnc1` [NCGC00416987-01]: the concentration at half-maximal activity (AC50) was found to be 6.85 µM.
As for `Cc1cccc(Nc2cc(C)c3c(O)cccc3n2)c1C` [MLS000586980-01], the AC50 was 4.73 µM.
With `COc1cccc([S+](=O)([O-])N2CCC3(CC2)CC(N(C)Cc2ccccc2)CCO3)c1` (stereo not shown) [NCGC00453781-01], the AC50 came out at 8.41 µM.
For the compound `COc1ccc2c(CNCc3ccccc3OC)c(C(=O)O)n(Cc3ccc(F)cc3Cl)c2c1` [NCGC00122363-01], the concentration at half-maximal activity (AC50) stood at 15 µM.
On the same count and under the same terms, to `COc1ccc(CNC(=O)C2CCN(c3nc(-c4ccccc4)nc4c3CCC4)CC2)cc1` [MLS001120192-01] belongs 7.5 µM; to `COc1ccc([S+](=O)([O-])NC[C@H]2C[C@@H]3CC[N@]2C[C@@H]3CN(C)Cc2ccccc2)cc1` [NCGC00400093-01], 4.73 µM.
On the same count and under the same terms, for `CCN(CCCNC(=O)c1nn(-c2ccc(OC)c(Cl)c2)c(=O)c2c1c1ccccc1n2C)c1cccc(C)c1` [NCGC00108898-01] the value was 15 µM.
The same measure, in the same setting: to `COc1ccccc1-c1cc(C(=O)N2CCN(S(=O)(=O)c3ccc(C)cc3)CC2)[nH]n1` [MLS000924750-01] belongs 7.5 µM.
Turning to `Cc1oc2ccc(O)c(CN(C)Cc3ccccc3)c2c1C(=O)Nc1ccccc1` [NCGC00115689-01], the AC50 was found to be 2.37 µM.
Regarding `Cc1ccccc1NC(=O)c1c(NC(=O)c2ccco2)sc2c1CCC(C(C)(C)C)C2` (stereo not shown) [NCGC00099842-01], the AC50 turned out to be 13.3 µM.
For the compound `Cc1ccccc1CN1C(=O)CN=C(c2ccccc2)c2cc(Cl)ccc21` [NCGC00140581-01], the AC50 is 16.8 µM.
As to `CCN(CC)CCCNC(=O)c1nn(-c2ccc(OC)c(Cl)c2)c(=O)c2c1c1ccccc1n2C` [NCGC00108872-01], the concentration at half-maximal activity (AC50) was determined as 10.6 µM.
Take `COc1ccc(S(=O)(=O)N2CCCCCC2)cc1NC(=O)c1c2c(nc3ccccc13)CCN(Cc1ccccc1)C2` [MLS000393062-01]: the AC50 came out at 4.73 µM.
On the same count and under the same terms, to `O=C1CC(c2ccccc2)N(C(=O)CNC(=O)c2ccc3[nH]ccc3c2)CCCCCN1` (stereo not shown) [NCGC00465493-01] belongs 15 µM.
In the case of `Fc1ccc(N2CCN(Cc3cccn3-c3nnc(N4CCN(C5CCCCC5)CC4)s3)CC2)cc1` [NCGC00127052-01], the AC50 is 11.9 µM.
Turning to `COc1ccc(-c2cc(C(=O)Nc3cc(OC)cc(C(=O)Nc4cccc(C(F)(F)F)c4)c3)[nH]n2)cc1` [MLS003105955-01], the AC50 was 5.31 µM.
With `CCOc1ccc(CN2C(=O)c3ccccc3Sc3ccc(C(=O)N4CCN(C)CC4)cc32)cc1` [NCGC00108216-01], the concentration at half-maximal activity (AC50) stood at 0.299 µM.
Still for that read-out and setting: for `COc1ccc(C2=C(Nc3ccccc3)c3ccccc3C2=O)cc1` [MLS000572234-01] the value was 9.44 µM; for `Cc1cc(Nc2ccc(C)c(F)c2)n2ncnc2n1` [MLS000033310-01], 9.44 µM.
For the compound `CCN(c1ccccc1)[S+](=O)([O-])c1cc(Br)cc2c1N(C(=O)C1CC1)CC2` [NCGC00104258-01], the AC50 was found to be 2.99 µM.
As for `O=C(Nc1nc2ccccc2n1Cc1ccccc1)c1ccc(COc2ccccc2[N+](=O)[O-])o1` [MLS000543610-01], the AC50 was 16.8 µM.
As to `CC(C)(C)n1nnnc1C(c1cccnc1)N(Cc1ccccc1)Cc1ccco1` (stereo not shown) [MLS000528003-01], the concentration at half-maximal activity (AC50) is 5.31 µM.
Consider `Cn1nc(C2CCCCC2)cc1[C@H]1CN2CC[C@H]1C[C@@H]2CNC(=O)COc1ccccc1` [NCGC00399666-01], for which the AC50 is 15 µM.
Regarding `CC1=C[C@@H](CN2CCN(c3ncccn3)CC2)[C@H](C(C)C)C[C@H]1Cc1nnc(COc2ccc(F)cc2)o1` [NCGC00395820-01], the AC50 was 0.75 µM.
Same read-out and setting: to `COc1ccc(N(CC(=O)NCc2ccccc2)C(=O)CCC(=O)Nc2cc(C)ccn2)c(OC)c1` [MLS000121471-01] belongs 10.6 µM; to `Cc1ccc(NC(=O)N(Cc2ccc3c(c2)OCO3)Cc2cc3cc4c(cc3[nH]c2=O)OCCO4)cc1` [MLS000033889-01], 6.68 µM.
On to `Cc1ccc(C)c(-n2c(-c3ccc(Br)cc3)csc2=NC(=O)c2ccccc2F)c1` [MLS000766129-01], for which the AC50 was determined as 4.73 µM.
Consider `CC(C)N1CCN(Cc2ccc(-c3ccccc3)cc2)CC1CCO` (stereo not shown) [MLS001000401-01], for which the concentration at half-maximal activity (AC50) is 6.68 µM.
On the same count and under the same terms, for `COc1cc2c(cc1OCc1cccnc1)N(C(=O)c1ccc(Oc3ccccc3)cc1)CC21CCN(CC(=O)O)CC1` [NCGC00419910-01] the value was 5.96 µM.
For the compound `Cc1nc2sc(C(=O)Nc3ccc(F)cc3)c(N)c2c(-c2ccc(Br)cc2)c1C(=O)Nc1ccc(Cl)cc1` [NCGC00105115-01], the concentration at half-maximal activity (AC50) is 8.41 µM.
As for `Cc1ccc2c(c1)c1c3n2CCCN(Cc2ccccc2)C3CCC1` (stereo not shown) [MLS000525489-01], the concentration at half-maximal activity (AC50) was 4.22 µM.
On to `COc1ccc(C(=O)N2CCC3(CC2)OC(=O)N(Cc2ccc(O)cc2)C3(C)c2ccccc2)cn1` (stereo not shown) [NCGC00415507-01], for which the AC50 was found to be 6.68 µM.
As for `COc1ccc(N2CCN(C(c3cc4ccc(C)cc4nc3O)c3nnnn3C3CCCC3)CC2)cc1` (stereo not shown) [MLS000077379-01], the AC50 is 6.68 µM.
`Cc1oc2ccc(O)c(CN3CCN(Cc4ccccc4)CC3)c2c1C(=O)Nc1cccc(Cl)c1C` [NCGC00115656-01]: the AC50 was found to be 0.596 µM.
In the case of `Cc1ccc(CN2CC[C@@H]3C(=O)NCCCCCCN(Cc4ccncc4)[C@@H]3C2)o1` [NCGC00467213-01], the AC50 was found to be 2.11 µM.
Same read-out and setting: to `Cc1ccc(-n2ncc3c(NCc4ccco4)ncnc32)cc1C` [MLS000622044-01] belongs 15 µM.
With `CC(C)Nc1nccc(C2(c3ccccc3Cl)CCNCC2)n1` [NCGC00440810-01], the AC50 amounted to 9.44 µM.
As to `COc1ccc(CCC(=O)N2Cc3ccccc3OC3(CCN(C)CC3)C2)cc1` [NCGC00456460-01], the half-maximal activity concentration (AC50) came to 7.5 µM.
As to `Cc1nc(CN2C(=O)OC3(CCN(C(=O)Cc4ccc5c(c4)OCO5)CC3)C2(C)c2ccccc2)cs1` (stereo not shown) [NCGC00415487-01], the concentration at half-maximal activity (AC50) is 2.11 µM.
The same measure, in the same setting: for `O=c1c2c([nH]c3ccccc13)CCCC2` [MLS000551004-01] the value was 6.68 µM.
`O=C1N=C(NC2CCCC2)C2(CCN(Cc3ccccc3)C2)N1c1cc(F)cc(F)c1` (stereo not shown) [NCGC00374299-01]: the concentration at half-maximal activity (AC50) stood at 7.5 µM.
Still for that read-out and setting: to `Cc1nn2c(c1-c1ccccc1[S+](C)(=O)[O-])N(CCC(C)C)CCC2` [NCGC00420381-01] belongs 9.68 µM; to `COc1ccc2cc1Nc1ccc(cc1)C[C@H](NC(=O)c1cc3ccccc3n1C)C(=O)N(C)[C@H](C(=O)NCCC(C)C)C2` [NCGC00410275-01], 10.6 µM; to `CCCCCCCn1c(NC(=O)CC)nc2ccccc21` [MLS001042192-01], 16.8 µM.
`NC(=O)c1cccc2nc([C@H]3CCN(Cc4ccccn4)C3)[nH]c12` [NCGC00396190-01]: the AC50 turned out to be 1.53 µM.
The same measure, in the same setting: to `Fc1cccc(CN2CCC(N3CC(OCC4CC4)C34CCCCC4)CC2)c1` (stereo not shown) [NCGC00463410-01] belongs 4.22 µM; to `O=C(CCC[C@H]1NC[C@@H]2C[C@H]1CN(Cc1ccccc1)C2)NCCCN1CCCc2ccccc21` [NCGC00428635-01], 10.6 µM; to `COCCCNC(=O)C1(C)CN(C)Cc2ccc(Nc3ccccc3)nc21` (stereo not shown) [NCGC00414477-01], 6.85 µM.
